# Measured values: patent US6602888B2, “Use of α1C specific compounds to treat benign prostatic hyperplasia” (Synaptic Pharmaceutical Corporation, priority 1992, dated 2003)
# Where two headings read alike, the source gives them in different places.
# Legend:
# [1] = molecular target: T1, human α2A adrenergic receptor (Homo sapiens, UniProt P08913); test: Competition binding, [3H]rauwolscine, α2A receptor
# T1 sequence (P08913 1-465): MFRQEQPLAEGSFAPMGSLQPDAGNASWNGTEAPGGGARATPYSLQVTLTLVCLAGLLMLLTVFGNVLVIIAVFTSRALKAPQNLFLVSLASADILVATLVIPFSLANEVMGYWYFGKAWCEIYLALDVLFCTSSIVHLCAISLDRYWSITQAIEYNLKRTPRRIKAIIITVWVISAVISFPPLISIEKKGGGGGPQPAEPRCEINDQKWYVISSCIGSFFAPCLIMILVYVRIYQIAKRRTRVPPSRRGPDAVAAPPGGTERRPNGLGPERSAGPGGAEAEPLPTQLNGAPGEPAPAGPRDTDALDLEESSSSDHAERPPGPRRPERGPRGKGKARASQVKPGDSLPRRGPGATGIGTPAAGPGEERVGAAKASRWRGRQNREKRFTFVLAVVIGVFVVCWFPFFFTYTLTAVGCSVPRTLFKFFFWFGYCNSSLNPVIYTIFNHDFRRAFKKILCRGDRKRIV
# Experimental: To determine the potency of α1 antagonists at the α2 receptors, LM(tk−) cell lines stably transfected with the genes encoding the α2A, α2B, and α2C receptors were used. The cell line expressing the α2A receptor is designated L-α2A, and was deposited on Nov. […] The cell line expressing the α2B receptor is designated L-NGC-α2B, and was deposited on Oct. […] The cell line expressing the α2C receptor is designated L-α2C, and was deposited on Nov. […] Cell lysates were prepared as described above (see Radioligand Binding Assays), and suspended in 25 mM glycylglycine buffer (pH 7.6 at room temperature).
# human 5HT2 receptor = molecular target: T2, human 5HT2 receptor (Homo sapiens, UniProt P28223); test: [3H]ketanserin competition binding, 5HT2 receptor; conditions: for Ki: read-out: Serotonin 5HT2 (pK1)
# T2 construct: host or cells: COS-7 (DEAE-dextran); the same paragraph also names a deposited line L-NGC-5HT2
# Experimental: The coding sequence of the human 5HT2 receptor was obtained from a human brain cortex cDNA library, and cloned into the cloning site of pCEXV-3 eukaryotic expression vector. This construct was transfected into COS-7 cells by the DEAE-dextran method. […] Nonspecific binding was defined by the addition of 10 μM mianserin.
# [2] = molecular target: T3, human histamine H2 receptor (Homo sapiens, UniProt P25021); test: [3H]tiotidine binding, histamine H2 receptor; conditions: for Ki: read-out: Histamine H2 (pK1) (converted)
# T3 construct: host or cells: COS-7, transient, DEAE-dextran
# From the text: The coding sequence of the human H2 receptor was obtained from a human placenta genomic library, and cloned into the cloning site of PCEXV-3 eukaryotic expression vector. The plasmid DNA for the H2 receptor is designated pcEXV-H2, and was deposited on Nov. […] This construct was transfected into COS-7 cells by the DEAE-dextran method.
# [3] = molecular target: T4, human histamine H1 receptor (Homo sapiens, UniProt P35367); test: [3H]mepyramine binding, histamine H1 receptor; conditions: for Ki: read-out: Histamine H1 (pK1) (converted)
# T4 construct: host or cells: COS-7, transient, DEAE-dextran
# From the text: The coding sequence of the human histamine H1 receptor, homologous to the bovine H1 receptor, was obtained from a human hippocampal cDNA library, and was cloned into the eukaryotic expression vector pCEXV-3. The plasmid DNA for the H1 receptor is designated pcEXV-H1, and was deposited on Nov. […] This construct was transfected into COS-7 cells by the DEAE-dextran method.
# human 5HT1F receptor = molecular target: T5, human 5HT1F receptor (Homo sapiens, UniProt P30939); test: [3H]serotonin competition binding, 5HT1F receptor
# T5 construct: host or cells: LM(tk-) clonal cell line L-5-HT1F
# T5 sequence (P30939 1-366): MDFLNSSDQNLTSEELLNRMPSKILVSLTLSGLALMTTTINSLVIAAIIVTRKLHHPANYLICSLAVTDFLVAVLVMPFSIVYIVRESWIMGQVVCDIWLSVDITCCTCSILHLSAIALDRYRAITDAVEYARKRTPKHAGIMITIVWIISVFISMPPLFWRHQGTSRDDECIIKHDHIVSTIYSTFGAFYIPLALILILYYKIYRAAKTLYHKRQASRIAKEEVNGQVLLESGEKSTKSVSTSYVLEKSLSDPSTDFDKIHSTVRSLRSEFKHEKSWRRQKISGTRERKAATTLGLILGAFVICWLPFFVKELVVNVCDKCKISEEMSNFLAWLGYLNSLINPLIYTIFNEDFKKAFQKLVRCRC
# Experimental: (§1) 5HT1Dα, 5HT1Dβ, 5HT1E, 5HT1F Receptors: The cell lysates of LM(tk−) clonal cell line stably transfected with the genes encoding each of these 5HT receptor-subtypes were prepared as described above. The cell line for the 5HT1Dα receptor, designated as Ltk-8-30-84, was deposited on Apr. […] The cell for the 5HT1Dβ receptor, designated as Ltk-11, was deposited on Apr. […] The cell line for the 5HT1E receptor, designated 5 HT1E-7, was deposited on Nov. […] The cell line for the 5HT1F receptor, designated L-5-HT1F, was deposited on Dec. […] These preparations were suspended in 50 mM Tris-HCl buffer (pH 7.4 at 37° C.) containing 10 mM MgCl2, 0.2 mM EDTA, 10 μM pargyline, and 0.1% ascorbate.
# [4] = molecular target: T6, human α1C adrenergic receptor (Homo sapiens, UniProt P35348); test: Radioligand binding, [3H]prazosin, cloned human α1C adrenergic receptor
# T6 construct: The entire coding region of α1C (1401 bp); expressed in transfected cells
# T6 sequence (P35348 1-466): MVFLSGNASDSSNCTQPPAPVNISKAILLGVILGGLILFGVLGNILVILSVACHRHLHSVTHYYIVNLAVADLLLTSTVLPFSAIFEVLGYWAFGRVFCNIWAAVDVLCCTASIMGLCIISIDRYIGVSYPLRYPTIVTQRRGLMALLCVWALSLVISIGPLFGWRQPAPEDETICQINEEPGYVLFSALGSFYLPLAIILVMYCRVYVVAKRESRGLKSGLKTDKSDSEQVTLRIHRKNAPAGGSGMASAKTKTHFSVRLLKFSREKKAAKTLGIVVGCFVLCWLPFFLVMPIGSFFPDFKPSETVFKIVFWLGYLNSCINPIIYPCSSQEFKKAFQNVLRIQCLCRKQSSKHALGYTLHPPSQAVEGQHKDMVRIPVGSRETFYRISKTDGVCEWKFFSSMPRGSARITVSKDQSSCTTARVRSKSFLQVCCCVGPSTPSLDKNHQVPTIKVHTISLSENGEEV
# From the text: The construct involved ligating three partial overlapping fragments: a 5′ 0.6 kb HincII genomic clone, a central 1.8 EcoRI hippocampal cDNA clone, and a 3′ 0.6 Kb PstI genomic clone. The hippocampal cDNA fragment overlaps with the 5′ and 3′ genomic clones so that the HincII and PstI sites at the 5′ and 3′ ends of the cDNA clone, respectively, were utilized for ligation. This full-length clone was cloned into the KpnI site of the expression vector, using the 5′ and 3′ KpnI sites of the fragment, derived from vector (i.e., pBluescript) and 3′-untranslated sequences, respectively. Stable cell lines were selected as described above.
# human 5HT1Dβ receptor = molecular target: T7, human 5HT1Dβ receptor (Homo sapiens, UniProt P28222); test: [3H]serotonin competition binding, 5HT1Dβ receptor
# T7 construct: host or cells: LM(tk-) clonal cell line Ltk-11
# Experimental: as §1
# [5] = Table 2, cloned human receptor, read-out: Alpha-2 Adrenergic a2a (pK1) (converted)
# [6] = Table 2, cloned human receptor, read-out: Serotonin 5HT1F (pK1)
# [7] = Table 2, cloned human receptor, read-out: Serotonin 5HT1Db (pK1)
# T7 sequence (P28222 whole entry): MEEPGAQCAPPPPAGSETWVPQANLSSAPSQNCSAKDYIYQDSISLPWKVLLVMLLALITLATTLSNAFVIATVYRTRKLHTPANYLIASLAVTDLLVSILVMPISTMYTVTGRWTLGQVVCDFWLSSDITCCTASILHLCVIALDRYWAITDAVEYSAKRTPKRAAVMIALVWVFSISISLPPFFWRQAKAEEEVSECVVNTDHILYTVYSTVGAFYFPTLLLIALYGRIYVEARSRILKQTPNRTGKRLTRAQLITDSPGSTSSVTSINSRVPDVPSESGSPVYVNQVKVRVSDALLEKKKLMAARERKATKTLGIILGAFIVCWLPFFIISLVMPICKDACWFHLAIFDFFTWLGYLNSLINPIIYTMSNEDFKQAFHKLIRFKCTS
# T2 sequence (P28223 whole entry): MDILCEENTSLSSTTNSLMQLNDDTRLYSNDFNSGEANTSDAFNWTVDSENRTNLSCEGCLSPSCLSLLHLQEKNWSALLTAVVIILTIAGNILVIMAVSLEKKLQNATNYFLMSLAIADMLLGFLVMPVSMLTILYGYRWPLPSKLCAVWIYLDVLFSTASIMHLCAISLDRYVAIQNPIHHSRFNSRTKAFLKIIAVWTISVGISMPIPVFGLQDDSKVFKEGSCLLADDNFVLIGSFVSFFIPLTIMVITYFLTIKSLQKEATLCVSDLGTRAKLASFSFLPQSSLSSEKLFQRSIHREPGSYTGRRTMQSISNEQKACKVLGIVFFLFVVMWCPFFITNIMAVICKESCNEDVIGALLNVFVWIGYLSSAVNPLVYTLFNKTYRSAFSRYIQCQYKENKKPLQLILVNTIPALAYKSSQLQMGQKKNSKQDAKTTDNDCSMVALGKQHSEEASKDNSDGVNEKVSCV
# T3 sequence (P25021 whole entry): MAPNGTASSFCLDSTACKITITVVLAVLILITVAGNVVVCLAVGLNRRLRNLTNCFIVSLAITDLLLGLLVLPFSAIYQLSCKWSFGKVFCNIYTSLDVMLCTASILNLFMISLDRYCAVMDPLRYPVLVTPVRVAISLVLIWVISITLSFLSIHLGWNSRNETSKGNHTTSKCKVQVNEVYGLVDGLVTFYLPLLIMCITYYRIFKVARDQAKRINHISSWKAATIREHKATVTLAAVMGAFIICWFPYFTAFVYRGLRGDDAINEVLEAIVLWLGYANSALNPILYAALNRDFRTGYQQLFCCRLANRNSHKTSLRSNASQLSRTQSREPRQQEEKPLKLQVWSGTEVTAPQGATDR
# T4 sequence (P35367 whole entry): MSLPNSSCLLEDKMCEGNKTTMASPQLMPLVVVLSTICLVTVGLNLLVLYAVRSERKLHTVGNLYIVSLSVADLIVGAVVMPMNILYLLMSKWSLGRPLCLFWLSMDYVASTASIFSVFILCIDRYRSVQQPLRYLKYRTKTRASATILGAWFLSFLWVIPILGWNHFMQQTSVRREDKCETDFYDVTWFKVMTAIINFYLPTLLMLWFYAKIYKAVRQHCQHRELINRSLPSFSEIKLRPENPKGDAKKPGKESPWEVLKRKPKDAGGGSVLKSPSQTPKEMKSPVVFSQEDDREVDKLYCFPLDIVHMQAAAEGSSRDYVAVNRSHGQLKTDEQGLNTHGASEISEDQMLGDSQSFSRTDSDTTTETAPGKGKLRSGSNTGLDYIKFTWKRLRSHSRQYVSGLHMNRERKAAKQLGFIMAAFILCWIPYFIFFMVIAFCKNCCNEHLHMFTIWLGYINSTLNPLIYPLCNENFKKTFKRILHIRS
Compound,"Serotonin 5HT1F (pK1) (human 5HT1F receptor; Table 2, cloned human receptor)","Serotonin 5HT1Db (pK1) (human 5HT1Dβ receptor; Table 2, cloned human receptor)","Alpha-2 Adrenergic a2a (pK1) ([1]; Table 2, cloned human receptor)","Serotonin 5HT2 (pK1) (human 5HT2 receptor; Table 2, cloned human receptor)","Histamine H2 (pK1) ([2]; Table 2, cloned human receptor)","Histamine H1 (pK1) ([3]; Table 2, cloned human receptor)","Human Alpha-1 Adrenergic (pK1) a1C ([4]; Table 1, cloned human receptor)","Alpha-1 Adrenergic a1C (pK1) ([4]; Table 2, cloned human receptor)","Ki (human 5HT2 receptor; Table 2, cloned human receptor) [nM]","Ki ([2]; Table 2, cloned human receptor) [nM]","Ki ([3]; Table 2, cloned human receptor) [nM]",further results
"4-fluoro-4-(8-fluoro-1,3,4,5-tetrahydro-2H-pyrido[4,3-b]indol-2-yl)butyrophenone hydrochloride [Compound A-30360, reference compound]",<5.0,<6.0,–,–,–,–,–,–,–,–,–,Alpha-2 Adrenergic a2a (pK1) [1]: 6.69; Serotonin 5HT2 (pK1) (human 5HT2 receptor): <8.0; Histamine H2 (pK1) [2]: 5.77; Histamine H1 (pK1) [3]: 6.03; Alpha-1 Adrenergic a1C (pK1) [4]: 8.52; Human Alpha-1 Adrenergic (pK1) a1C [4]: 8.52
"COc1ccccc1N1CCN(CCCNc2c(C)c(=O)n(C)c(=O)n2C)CC1 [5-Methyl-Urapidil, 5-methylurapidil, reference compound]",–,6.82,6.63,<6.0,4.47,5.16,8.35,8.35,–,–,–,–
O=C(CCCN1CCC(NC(=O)c2ccccc2)CC1)c1ccc(Cl)cc1 [Compound 7],<5.0,<5.0,–,<6.0,6.02,7.59,8.42,8.42,–,–,–,–
"COC(=O)C1=C(C)NC(C)=C(C(=O)OCCCN2CCC(c3ccccc3)(c3ccccc3)CC2)C1c1ccc([N+](=O)[O-])cc1.Cl (centres unmarked) [Compound 8, 2,6-Dimethyl-4-(4-nitrophenyl)-1,4-dihydropyridine-3,5-dicarboxylic acid [3-(4,4-diphenylpiperidin-1-yl)propyl] ester methyl ester hydrochloride]",–,–,5.99,–,–,–,–,–,> 100,776,214,Ki (human 5HT1F receptor): > 10000 nM; Alpha-1 Adrenergic a1C (pK1) [4]: 8.48; Human Alpha-1 Adrenergic (pK1) a1C [4]: 8.48; Ki (human 5HT1Dβ receptor): > 10000 nM
O=C(CCCN1CCC(NC(=O)c2ccccc2)CC1)c1ccccc1 [Compound 9],<5.0,<6.0,5.80,<7.0,5.44,7.29,7.83,7.83,–,–,–,–
"COc1ccc(CCNCC2CCc3ccccc3C2)cc1 (centres unmarked) [Compound 11, 2-[(4-Methoxyphenethyl)aminomethyl]-1,2,3,4-tetrahydronaphthalene]",–,–,–,–,–,–,–,8.36,> 100,35.5,1820,"Ki [1, 5]: 138 nM; Ki (human 5HT1F receptor): > 10000 nM; Ki ([4]; Table 1, cloned human receptor, read-out: Human Alpha-1 Adrenergic (pK1) a1C (converted)): 4.37 nM; binding affinity at α1C receptors relative to binding affinities at other receptors ([4]; versus the other receptors of Table 2): greater than ten-fold higher; Ki (human 5HT1Dβ receptor): > 1000 nM"
"O=C(NC1CCN(CCc2c[nH]c3ccccc23)CC1)c1ccccc1 [Indoramin, reference compound]",–,–,–,–,–,–,–,–,> 100,2340,42.7,"Ki [1, 5]: 11500 nM; Ki (human 5HT1F receptor; [6]): > 10000 nM; selectivity for the human α1C receptor relative to the other human α-adrenergic receptors ([4]; cloned human receptors): slightly selective; Ki (human 5HT1Dβ receptor; [7]): > 1000 nM"
"C=Cc1sc2ccc(Cl)c3c2c1CN(C)CC3 [SKF-104856, 7-Chloro-2-ethenyl-3,4,5,6-tetrahydro-4-methylthieno[4,3,2-ef][3]benzazepine, reference compound]",–,–,–,–,–,–,7.60,7.60,> 1000,1450,2570,Ki [1]: 50.1 nM; Ki (human 5HT1F receptor; [6]): > 100 nM; Ki (human 5HT1Dβ receptor; [7]): > 100 nM
